These results are taken from ChEMBL document CHEMBL2321665, “Treatment of Obesity and Related Disorders with Acetyl-CoA Carboxylase Inhibitors” (ACS Med Chem Lett, 2013).

A word on the IC50: it is the midpoint of a concentration-inhibition curve.

The target of one assay is Acetyl-CoA carboxylase 2 (Homo sapiens, UniProt O00763). The assay can be described thus: Inhibition of human recombinant ACC2.
In another assay the target is Acetyl-CoA carboxylase 1 (Homo sapiens, UniProt Q13085). The assay can be described thus: Inhibition of human recombinant ACC1.

Sequence of Acetyl-CoA carboxylase 2 (O00763 whole entry): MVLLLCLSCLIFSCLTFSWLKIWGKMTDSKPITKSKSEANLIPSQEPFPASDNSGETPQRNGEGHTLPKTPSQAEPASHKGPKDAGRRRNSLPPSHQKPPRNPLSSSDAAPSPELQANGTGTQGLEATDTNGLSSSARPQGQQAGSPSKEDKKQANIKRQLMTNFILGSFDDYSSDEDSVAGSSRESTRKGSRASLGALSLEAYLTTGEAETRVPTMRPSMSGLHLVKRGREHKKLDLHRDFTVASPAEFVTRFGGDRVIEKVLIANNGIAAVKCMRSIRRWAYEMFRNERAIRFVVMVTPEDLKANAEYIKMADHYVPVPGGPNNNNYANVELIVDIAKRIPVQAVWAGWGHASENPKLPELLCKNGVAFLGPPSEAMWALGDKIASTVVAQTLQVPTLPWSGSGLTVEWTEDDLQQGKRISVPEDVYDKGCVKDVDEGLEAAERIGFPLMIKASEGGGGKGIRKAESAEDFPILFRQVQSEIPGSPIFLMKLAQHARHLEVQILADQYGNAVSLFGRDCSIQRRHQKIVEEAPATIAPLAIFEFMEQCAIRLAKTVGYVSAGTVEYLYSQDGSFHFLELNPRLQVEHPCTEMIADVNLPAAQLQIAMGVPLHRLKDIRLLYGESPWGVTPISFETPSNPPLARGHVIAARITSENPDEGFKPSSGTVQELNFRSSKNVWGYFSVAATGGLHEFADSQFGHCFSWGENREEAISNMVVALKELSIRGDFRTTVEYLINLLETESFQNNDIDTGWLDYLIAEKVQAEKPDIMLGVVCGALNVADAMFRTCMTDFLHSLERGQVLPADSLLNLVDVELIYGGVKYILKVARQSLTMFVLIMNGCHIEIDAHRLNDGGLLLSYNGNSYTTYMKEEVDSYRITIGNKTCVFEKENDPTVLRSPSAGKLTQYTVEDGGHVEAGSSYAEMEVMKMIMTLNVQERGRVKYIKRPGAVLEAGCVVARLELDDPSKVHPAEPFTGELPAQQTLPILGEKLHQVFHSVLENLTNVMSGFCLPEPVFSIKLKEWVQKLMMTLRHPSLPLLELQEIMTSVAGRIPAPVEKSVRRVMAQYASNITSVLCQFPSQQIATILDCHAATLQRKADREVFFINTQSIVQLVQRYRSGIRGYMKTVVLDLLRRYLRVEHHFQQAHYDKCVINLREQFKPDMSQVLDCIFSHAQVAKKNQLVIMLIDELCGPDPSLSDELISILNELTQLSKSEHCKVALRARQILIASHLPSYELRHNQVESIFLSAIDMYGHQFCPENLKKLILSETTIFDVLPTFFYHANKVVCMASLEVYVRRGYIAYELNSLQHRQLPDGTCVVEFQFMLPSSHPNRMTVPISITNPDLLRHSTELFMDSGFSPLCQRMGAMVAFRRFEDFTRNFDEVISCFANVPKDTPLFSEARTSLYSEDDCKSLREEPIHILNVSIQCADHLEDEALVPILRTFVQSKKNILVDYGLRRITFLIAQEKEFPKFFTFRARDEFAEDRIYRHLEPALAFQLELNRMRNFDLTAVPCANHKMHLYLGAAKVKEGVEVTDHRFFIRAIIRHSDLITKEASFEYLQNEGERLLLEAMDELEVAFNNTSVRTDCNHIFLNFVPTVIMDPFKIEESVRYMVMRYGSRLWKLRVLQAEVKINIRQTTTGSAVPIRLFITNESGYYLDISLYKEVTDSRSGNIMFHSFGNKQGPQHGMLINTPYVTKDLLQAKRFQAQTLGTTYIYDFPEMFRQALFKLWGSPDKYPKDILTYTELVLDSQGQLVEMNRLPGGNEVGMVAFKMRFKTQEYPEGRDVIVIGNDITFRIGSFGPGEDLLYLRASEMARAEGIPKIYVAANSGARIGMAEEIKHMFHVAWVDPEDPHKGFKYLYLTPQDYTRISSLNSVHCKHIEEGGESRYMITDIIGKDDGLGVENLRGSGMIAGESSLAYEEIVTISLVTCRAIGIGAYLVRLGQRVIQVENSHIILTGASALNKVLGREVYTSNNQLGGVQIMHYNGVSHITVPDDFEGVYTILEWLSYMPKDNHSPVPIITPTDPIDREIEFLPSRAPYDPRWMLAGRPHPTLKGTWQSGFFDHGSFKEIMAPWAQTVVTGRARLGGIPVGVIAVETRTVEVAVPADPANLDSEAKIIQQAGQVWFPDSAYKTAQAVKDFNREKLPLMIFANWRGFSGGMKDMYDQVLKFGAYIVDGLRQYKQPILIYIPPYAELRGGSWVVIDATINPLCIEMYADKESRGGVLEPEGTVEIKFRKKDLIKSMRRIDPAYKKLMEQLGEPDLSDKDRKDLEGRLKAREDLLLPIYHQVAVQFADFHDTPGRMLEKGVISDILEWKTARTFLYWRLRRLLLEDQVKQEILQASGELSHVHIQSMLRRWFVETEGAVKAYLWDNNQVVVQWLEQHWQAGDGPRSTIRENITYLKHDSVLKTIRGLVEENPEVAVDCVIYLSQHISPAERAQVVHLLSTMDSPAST

On to `CC(C)n1ncc2c1C(=O)CC1(CCN(C(=O)c3ccc4ccc(N)nc4c3)CC1)C2`, for which the IC50 at Acetyl-CoA carboxylase 2 came out at 10 nM; on Acetyl-CoA carboxylase 1 it was 12 nM.
For `CNc1ccc2ccc(C(=O)N3CCC4(CC3)CC(=O)c3nn(C(C)(C)C)cc3C4)cc2n1`, the IC50 at Acetyl-CoA carboxylase 2 was 1.3 nM; at Acetyl-CoA carboxylase 1 it was 2.2 nM.
`CC(C)n1ncc2c1C(=O)CC1(CCN(C(=O)c3ccc4[nH]c(C(N)=O)cc4c3)CC1)C2`: the IC50 on Acetyl-CoA carboxylase 2 is 2.9 nM; at Acetyl-CoA carboxylase 1 it was 11 nM.
Turning to `COc1ccc2ncc(C(=O)N3CCC4(CC3)CC(=O)c3c(cnn3C(C)C)C4)cc2c1`, the figures for the IC50 at Acetyl-CoA carboxylase 2 and at Acetyl-CoA carboxylase 1 were 2.1 nM and 5 nM, respectively.
